Results reported in patent US20200306266A1, “SOLID DISPERSION OF DUTASTERIDE, METHOD FOR PRODUCING SAME, AND PHARMACEUTICAL COMPOSITION COMPRISING SAME” (KOREA PRIME PHARM CO., LTD., priority 2017, published 2020).

Experiment: Storage stability, related substance test
Assay type: physicochemical
Conditions: Raw material
Experimental: Evaluation of Storage Stability of the Preparations
The storage stabilities of the preparations were evaluated according to the test criteria for related substances.

In the case of `C[C@]12C=CC(=O)N[C@@H]1CC[C@@H]1[C@@H]2CC[C@]2(C)[C@@H](C(=O)Nc3cc(C(F)(F)F)ccc3C(F)(F)F)CC[C@@H]12` [Dutasteride, 17β-N-[2,5-bis(trifluoromethyl)]phenylcarbamoyl-4-aza-5α-androst-1-en-3-one], the Judgement is reported as “Suitable”.
